According to patent US20030108526A1, “Microorganisms for use in the measurement of environmental factors” (priority 2001, published 2003):

Experiments:
[1] = test system: cps::lacZ (β-galactosidase) expression in E. coli KMI001; experiment: Examination of biosensor function: IPTG-induced sensor E. coli or its supernatant with receptor-transferred marker E. coli; type: cell-based, Escherichia coli; conditions: 1 mM IPTG, Examples 6 and 7
Description: (§1) The next day, the color of each colony was observed.
as §1

ZmHK1 = experiment: Cytokinin sensor function and sensitivity of ZmHK1 in E. coli KMI001 (colony color on LAGX agar); type: cell-based, maize
Description: The protein coding region of pZmHK1 was amplified by PCR and ligated to the BamHI/BSalI site of pIN-IIIΔEH plasmid. Primer sequences used in the PCR amplification are as described below.
Plasmid pIN-IIIΔEH has a promoter that constitutively directs weak expression of a foreign gene in E. coli. The resultant plasmid was designated pIN-III-ZmHK.
The constructed plasmid was transformed into E. coli KMI001 [ΔrcsC, cps::lacZ]. This E. coli strain is a strain in which cps gene involved in polysaccharide synthesis and a binary regulatory factor consisting of rcsC-rcsB (an expression regulatory system for cps) are partially modified. Specifically, sensor histidine kinase gene rcsC is deleted, and β-galactosidase (a marker gene) is inserted downstream of the promoter of cps gene. The resultant transformant was cultured in 2 ml of LAG liquid medium (1% Bacto tryptone, 0.5% Bacto yeast extract, 1% NaCl, 40 mM glucose, 50 mM phosphate buffer, pH 7.0) overnight at 25° C. The resultant culture broth was centrifuged and the supernatant was discarded. The E. coli cell pellet was washed twice in sterilized water and suspended in 2 ml (final volume) of sterilized water. This suspension was spotted at two points each on LAGX agar medium (1% Bacto tryptone, 0.5% Bacto yeast extract, 1% NaCl, 40 mM glucose, 50 mM phosphate buffer, pH 7.0, 80 μg/ml X-gal, 1.5% agarose) containing 1 μM trans-zeatin (t-zeatin) and on LAGX agar medium not containing t-zeatin, and cultured overnight (12 hr) at 25° C. The next day, the color of each colony was observed.
E. coli suspension was prepared in the same manner as in Example 4. Subsequently, the suspension was spotted on LAGX agar medium containing t-zeatin at varied concentrations from 0 nM to 1000 nM, and cultured overnight (12 hr) at 25° C. The next day, the color of each colony was observed.

AHK4 = AHK4 (Arabidopsis thaliana, UniProt Q9C5U0); conditions: experimental conditions of Example 4; Plant Cell Physiol 2001, 42: 107-113; cited from earlier work
Sequence of AHK4 (Q9C5U0 whole entry): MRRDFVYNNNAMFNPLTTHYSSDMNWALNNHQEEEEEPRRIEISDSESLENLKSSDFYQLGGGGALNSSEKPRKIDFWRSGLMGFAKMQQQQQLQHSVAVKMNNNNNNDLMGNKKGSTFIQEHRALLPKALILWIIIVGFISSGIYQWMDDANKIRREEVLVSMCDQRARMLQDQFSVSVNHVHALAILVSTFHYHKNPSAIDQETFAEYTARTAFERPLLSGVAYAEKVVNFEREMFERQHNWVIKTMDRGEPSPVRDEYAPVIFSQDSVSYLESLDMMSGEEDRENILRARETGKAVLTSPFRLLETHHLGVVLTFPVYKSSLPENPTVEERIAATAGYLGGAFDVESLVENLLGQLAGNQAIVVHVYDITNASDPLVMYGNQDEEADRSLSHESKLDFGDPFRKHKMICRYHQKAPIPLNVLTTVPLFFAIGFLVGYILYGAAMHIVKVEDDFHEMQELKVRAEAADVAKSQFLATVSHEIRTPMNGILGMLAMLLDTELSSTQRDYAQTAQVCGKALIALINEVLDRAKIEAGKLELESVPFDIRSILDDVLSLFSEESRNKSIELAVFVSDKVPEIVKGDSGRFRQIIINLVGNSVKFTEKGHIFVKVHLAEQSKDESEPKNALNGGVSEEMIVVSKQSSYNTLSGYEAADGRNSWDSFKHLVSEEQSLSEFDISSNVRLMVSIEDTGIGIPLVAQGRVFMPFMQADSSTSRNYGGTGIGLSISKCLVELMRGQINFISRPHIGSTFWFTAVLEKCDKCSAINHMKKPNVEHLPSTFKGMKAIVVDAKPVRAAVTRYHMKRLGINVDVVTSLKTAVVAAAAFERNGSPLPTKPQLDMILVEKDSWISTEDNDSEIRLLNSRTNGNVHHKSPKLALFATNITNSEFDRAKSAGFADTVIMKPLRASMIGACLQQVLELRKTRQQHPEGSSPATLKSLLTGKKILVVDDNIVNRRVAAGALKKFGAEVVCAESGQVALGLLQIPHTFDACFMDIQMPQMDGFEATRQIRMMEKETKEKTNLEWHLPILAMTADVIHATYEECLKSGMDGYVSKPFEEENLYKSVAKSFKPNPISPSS

Molecule | Biosensor response (blue colony color) of receptor-transferred transformant to IPTG [1] | β-galactosidase expression of ZmHK1-transferred E. coli in response to the cytokinin in the medium (ZmHK1; 1 μM t-zeatin in LAGX agar, 12 hr, 25° C.) | t-zeatin concentration to which ZmHK1-transferred E. coli responds (ZmHK1; LAGX agar with 0 nM to 1000 nM t-zeatin, 12 hr, 25° C.) [µM] | lowest t-zeatin concentration to which AHK4-transferred E. coli is able to respond (AHK4) | ability to perceive cytokinins compared to that of AHK4 (ZmHK1) | color development of transferred E. coli spot compared with AHK4-transferred E. coli spots (ZmHK1; FIG. 1, 1 μM t-zeatin)
AHK4: Arabidopsis thaliana cytokinin receptor (sensor protein) | did not present a blue color | – | – | – | – | –
C/C(=C\CNc1ncnc2nc[nH]c12)CO [t-zeatin, trans-zeatin] | – | expressed β-galactosidase | ≤ 10 | approx. 50 nM | – | –
ZmHK1: maize cytokinin receptor, 974 amino acids, SEQ ID NO: 2 (protein, Zea mays) MGGKYRAARTKRWWRGLAAAGWVLTAVVCSAVMHWTLRRDSMDRAEERLVSMCEERARMLQEQFGVTVNHVHAIAILISTFNFEKSPPAIDQDTFAKYTARTSFERPLLNGVAFAQRVFHHEREMFESQQGWVMNTMQREPAPPQVEYAPVIFSQDTVSYLARIDMMSGEEDRENIFRARTTGKAVLTNPFRLLGSNHLGVVLTFAVYRPDLPADASVEQRVEATIGYLGGAFDVESLVENLLSKLAGNQDIVVNVYDVTNASDAMVLYGPSSLDEQVPFLHVSMLDFGDPFRKHEMRCRYRQKLPMPWSAITNPLGTFVIWMLLGYSIAAAYSRYDKVTEDCRKMEELKTQAEAADVAKSQFLATASHEIRTPMNGVLGMLDMLLGTDLTMTQKDYAQTAQMCGRALITLINDVLDRAKIEAGKLELEAVPFDLRSLMDDVVSLFSSKSREKCIELAVFVCDNVPKVVIGDPWRFRQILTNLVGNAVKFTERGHVFVRVCLAENSNMEANQVLHGAMNGKGGRVESTANGAFNTLSGFEAADRRNSWQYFKLLLSDKESLLDDLESENSNQSDSDRVTLAISIEDTGVGIPLQAQDRVFTPFMQADSSTSRNYGGTGIGLSISKCLAELMGGQISFTSHPSVGSTFTFSATLKHSHKDISGDSSRSLTEALPTAFKGMKAILVDGRPVRSAVTRYHLKRLGILLQVVNNMNAVVKAFPGQNGAAGSREKASILFIESDFWRPETDVQLLNHLREQKNGQLSDGHKVVLLVTSEADKDKYGSIFDIVMCKPIRASTIASSIQQLLKVEIAERKDNQNRPSFLRSLLVGKNILVVDDNKVNLRVAAAALKKYGANVSCVESGKDAISLLQPPHRFDACFMDVQMPEMDGFEATGQIRQMELKANEERKNKLASIEGSTTAEYHLPVLAMTADVIQATYEECIKSGMDGYVSKPFDEEQLYQAVSRLVVGTTDSAV | discriminated the presence or absence of a specific substance | – | – | – | approximately 10 fold | more intensive color development
